Measured values: patent US11260070B2, “Methods of treating feline coronavirus infections” (GILEAD SCIENCES, INC., priority 2017, dated 2022)
Where two headings read alike, the source gives them in different places.

Tests used:
[1] = tested on: feline coronavirus; assay: In vitro antiviral assay: virus-induced cytopathic effect in CRFK cells (crystal violet staining); assay type: cell-based
Experimental: Compound 1 was screened for activity against feline Coronaviruses in an in vitro assay. Serial dilutions of Compound 1 were mixed with 2.5×10^4 copies of feline coronavirus and added in sextuplicate to 96 well plates with pre-seeded CRFK cells. The plates were incubated for 72 hours followed by a staining of the cell culture monolayers with crystal violet. The level of virus-induced cytopathic effect was quantified visually and using a plate reader. Positive control wells comprised the virus without Compound 1. Negative control wells lacked both virus and Compound 1. The EC50 was calculated by regression analysis.

[2] = CellTox Green Cytotoxicity Assay in uninfected CRFK cells; assay type: cell-based; conditions: cat (feline), 72 hour incubation
Experimental: Compound 1 was screened for cytotoxicity in uninfected CRFK cells using a commercially available CellTox Green Cytotoxicity Assay (Promega). The assayed was performed in a 96 well place formate using serial dilution of Compound 1 in sextuplicate. Compound concentration associated with 50% cytotoxicity (CC50) following 72 hour incubation was calculated by regression analysis.

N#C[C@@]1(c2ccc3c(N)ncnn23)O[C@H](CO)[C@@H](O)[C@H]1O [Compound 1, (2R,3R,4S,5R)-2-(4-aminopyrrolo[2,1-f][1,2,4]triazin-7-yl)-3,4-dihydroxy-5-(hydroxymethyl)tetrahydrofuran-2-carbonitrile]
EC50 ([1]; Alphacoronavirus 1, CRFK, read-out: EC50 (FIG. 1 legend)): 750 nM | EC50 ([1]; Alphacoronavirus 1, feline coronavirus in CRFK cells, 72 hours incubation, regression analysis (Table 1), read-out: EC50): 770 nM | inhibition of feline coronavirus ([1]; CRFK cells, at 3, 2 and 1 μM, FIG. 1): ~100% | CC50 at 72 h [2]: > 100000 nM
